29 compounds from ChEMBL document CHEMBL4411274, “Recent advances of tetrazole derivatives as potential anti-tubercular and anti-malarial agents” (Eur J Med Chem, 2019) can be followed below.

For orientation: MIC means the lowest concentration that inhibits growth of the organism. A low value points to a more susceptible organism. A word on the IC50: it is the concentration needed to halve the response being measured.

Assay [1] relates to Mycobacterium tuberculosis. Briefly: Antibacterial activity against Mycobacterium tuberculosis CNCTC My 331/88. Type of assay: functional.
The subject of assay [2] is Mycobacterium avium. The experiment in a line: Antibacterial activity against Mycobacterium avium CNCTC My 330/88. Type of assay: functional.
Assay [3] has as its system Mycobacterium kansasii. Briefly: Antibacterial activity against Mycobacterium kansasii CNCTC My 235/80. Type of assay: functional.
The subject of assay [4] is Mycobacterium kansasii. The experiment in a line: Antibacterial activity against Mycobacterium kansasii isolate 6509/96. The format is functional.
Assay [5] relates to Mycobacterium tuberculosis. The experiment in a line: Antibacterial activity against Mycobacterium tuberculosis H37Rv by MABA. Type of assay: functional. On the technique in general: Resazurin is reduced to fluorescent resorufin, in cell work by metabolically active cells.
For assay [6], the system named is CHO-K1. The experiment in a line: Cytotoxicity against CHOK1 cells after 24 hrs by MTT assay. The format is cell-based. The following applies: Cricetulus griseus, CHO-K1, 24 h.

SMILES strings stand for the structures. Values after ≈ are worked out from the molar mass of the structure shown. A value given as a limit tells only on which side of the number the result lay.

For `Sc1nnnn1-c1ccccc1`, the MIC in assay [1], in assay [2], in assay [3] and in assay [4] was 250 to 500 µg/mL (≈ 1400 to 2810 µM) throughout.

As to `Sc1nnnn1-c1ccc(Cl)cc1`, the MIC in assay [1], in assay [2], in assay [3] and in assay [4] was 250 to 500 µg/mL (≈ 1180 to 2350 µM) in each case.

For the compound `Sc1nnnn1-c1ccc(Cl)c(Cl)c1`, the minimal inhibitory concentration (MIC) in assay [1], in assay [2], in assay [3] and in assay [4] was 250 to 500 µg/mL (≈ 1010 to 2020 µM) throughout.

In the case of `c1ccc(CSc2nnnn2-c2ccccc2)cc1`, the minimum inhibitory concentration (MIC) in assay [1], in assay [2], in assay [3] and in assay [4] was 8 to 250 µg/mL (≈ 29.8 to 932 µM) each time.

As to `Cc1ccc(-n2nnnc2SCCCCCCCOc2ccc3c(c2)CC[C@@H]2[C@@H]3CC[C@]3(C)C(=O)CC[C@@H]23)cc1`, the MIC in assay [1], in assay [2], in assay [3] and in assay [4] was ≥ 500 µg/mL throughout.

As for `C[C@]12CC[C@@H]3c4ccc(OCCCCCCCSc5nnnn5-c5ccccc5)cc4CC[C@H]3[C@@H]1CCC2=O`, the minimum inhibitory concentration (MIC) in assay [1], in assay [2], in assay [3] and in assay [4] was ≥ 500 µg/mL in each case.

As for `C[C@]12CC[C@@H]3c4ccc(OCCCCCCCSc5nnnn5-c5ccc(Cl)cc5)cc4CC[C@H]3[C@@H]1CCC2=O`, the MIC in assay [1], in assay [2], in assay [3] and in assay [4] was ≥ 500 µg/mL in each case.

Consider `C[C@]12CC[C@@H]3c4ccc(OCCCCCCCSc5nnnn5-c5ccc(Cl)c(Cl)c5)cc4CC[C@H]3[C@@H]1CCC2=O`, for which the MIC in assay [1], in assay [2], in assay [3] and in assay [4] was ≥ 500 µg/mL in each case.

Consider `Clc1ccc(-n2nnnc2SCc2ccccc2)cc1`, for which the minimal inhibitory concentration (MIC) in assay [1], in assay [2], in assay [3] and in assay [4] was 8 to 250 µg/mL (≈ 26.4 to 826 µM) throughout.

For `Cc1ccc(-n2nnnc2S)cc1`, the minimal inhibitory concentration (MIC) in assay [1], in assay [2], in assay [3] and in assay [4] was 250 to 500 µg/mL (≈ 1300 to 2600 µM) throughout.

With `Cc1ccc(-n2nnnc2SCc2ccccc2)cc1`, the MIC in assay [1], in assay [2], in assay [3] and in assay [4] was 8 to 250 µg/mL (≈ 28.3 to 885 µM) throughout.

For the compound `COc1cc(-c2nnnn2S(=O)(=O)c2ccccc2)ccc1OCC(O)(Cn1cncn1)c1ccc(Cl)cc1Cl` (stereo not drawn), in assay [5], it took 25 µg/mL (≈ 41.5 µM) to inhibit growth (MIC). For the same compound, the IC50 in assay [6] was > 150 µg/mL.

Regarding `COc1ccc(S(=O)(=O)n2nnnc2-c2ccc(OCC(O)(Cn3cncn3)c3ccc(Cl)cc3Cl)c(OC)c2)cc1` (stereo not drawn), the MIC in assay [5] was 1.56 to 12.5 µg/mL (≈ 2.47 to 19.8 µM). For the same compound, in assay [6], the IC50 is > 150 µg/mL.

In assay [5], `COc1cc(-c2nnnn2S(=O)(=O)c2ccc(F)cc2)ccc1OCC(O)(Cn1cncn1)c1ccc(Cl)cc1Cl` (stereo not drawn) had an MIC of 1.56 to 12.5 µg/mL (≈ 2.51 to 20.1 µM). Besides, the IC50 in assay [6] is > 150 µg/mL.

On to `COc1cc(-c2nnnn2S(=O)(=O)c2ccc(OC(F)(F)F)cc2)ccc1OCC(O)(Cn1cncn1)c1ccc(F)cc1F` (stereo not drawn), for which the IC50 in assay [6] is > 150 µg/mL.

The compound `COc1cc(-c2nnnn2S(=O)(=O)c2ccc(Br)cc2)ccc1OCC(O)(Cn1cncn1)c1ccc(F)cc1F` (stereo not drawn) registered an MIC in assay [5] of 3.12 µg/mL (≈ 4.81 µM). In addition, the IC50 in assay [6] is > 150 µg/mL.

On to `COc1cc(-c2nnnn2S(=O)(=O)c2ccc(Br)s2)ccc1OCC(O)(Cn1cncn1)c1ccc(Cl)cc1Cl` (stereo not drawn), for which the lowest concentration to inhibit growth in assay [5] (MIC) was 1.56 µg/mL (≈ 2.27 µM). Besides, the concentration for half-maximal inhibition (IC50) in assay [6] was > 150 µg/mL.

In turn, `COc1cc(-c2nnnn2S(=O)(=O)c2ccc(Br)cc2)ccc1OCC(O)(Cn1cncn1)c1ccc(Cl)cc1Cl` (stereo not drawn) showed an MIC in assay [5] of 1.56 to 12.5 µg/mL (≈ 2.29 to 18.3 µM). Also, in assay [6], the IC50 was > 150 µg/mL.

As to `COc1cc(-c2nnnn2S(=O)(=O)c2ccc(OC(F)(F)F)cc2)ccc1OCC(O)(Cn1cncn1)c1ccc(Cl)cc1Cl` (stereo not drawn), in assay [5], the MIC lay in the range of 1.56 to 12.5 µg/mL (≈ 2.27 to 18.2 µM). The IC50 in assay [6] was > 150 µg/mL.

In assay [5], `COc1cc(-c2nnnn2S(=O)(=O)c2ccc([N+](=O)[O-])cc2)ccc1OCC(O)(Cn1cncn1)c1ccc(F)cc1F` (stereo not drawn) yielded an MIC of 12.5 µg/mL (≈ 20.3 µM). The 50% inhibitory concentration (IC50) in assay [6] was > 150 µg/mL.

In the case of `COc1cc(-c2nnnn2S(=O)(=O)c2ccc(C)cc2)ccc1OCC(O)(Cn1cncn1)c1ccc(Cl)cc1Cl` (stereo not drawn), the minimum inhibitory concentration (MIC) in assay [5] lay within 1.56 to 12.5 µg/mL (≈ 2.53 to 20.3 µM). Further, in assay [6], the IC50 is > 150 µg/mL.

The compound `COc1cc(-c2nnnn2S(=O)(=O)c2ccccc2)ccc1OCC(O)(Cn1cncn1)c1ccc(F)cc1F` (stereo not drawn) displayed an MIC in assay [5] of 3.12 µg/mL (≈ 5.48 µM). In assay [6], the half-inhibitory concentration (IC50) was > 150 µg/mL.

Turning to `COc1cc(-c2nnnn2S(=O)(=O)c2ccc(C)cc2)ccc1OCC(O)(Cn1cncn1)c1ccc(F)cc1F` (stereo not drawn), the IC50 in assay [6] was > 150 µg/mL.

In assay [5], `COc1cc(-c2nnnn2S(=O)(=O)c2ccc(Br)s2)ccc1OCC(O)(Cn1cncn1)c1ccc(F)cc1F` (stereo not drawn) came in with an MIC of 1.56 µg/mL (≈ 2.38 µM). Also, the IC50 in assay [6] was > 150 µg/mL.

With `COc1ccc(S(=O)(=O)n2nnnc2-c2ccc(OCC(O)(Cn3cncn3)c3ccc(F)cc3F)c(OC)c2)cc1` (stereo not drawn), 1.56 µg/mL (≈ 2.6 µM) was the least that counted as inhibitory in assay [5] (MIC). For the same compound, in assay [6], the IC50 is > 150 µg/mL.

In assay [5], `COc1cc(-c2nnnn2S(=O)(=O)c2ccc(C(C)(C)C)cc2)ccc1OCC(O)(Cn1cncn1)c1ccc(F)cc1F` (stereo not drawn) yielded an MIC of 1.56 µg/mL (≈ 2.49 µM). Besides, the IC50 in assay [6] is > 150 µg/mL.

`COc1cc(-c2nnnn2S(=O)(=O)c2ccc(F)cc2)ccc1OCC(O)(Cn1cncn1)c1ccc(F)cc1F` (stereo not drawn) came in with an MIC in assay [5] of 6.25 µg/mL (≈ 10.6 µM). Further, the IC50 in assay [6] is > 150 µg/mL.

In turn, `COc1cc(-c2nnnn2S(=O)(=O)c2ccc(C(C)(C)C)cc2)ccc1OCC(O)(Cn1cncn1)c1ccc(Cl)cc1Cl` (stereo not drawn) displayed a minimal inhibitory concentration (MIC) in assay [5] of 1.56 to 12.5 µg/mL (≈ 2.37 to 19 µM). Besides, the IC50 in assay [6] is > 150 µg/mL.

`COc1cc(-c2nnnn2S(=O)(=O)c2ccc([N+](=O)[O-])cc2)ccc1OCC(O)(Cn1cncn1)c1ccc(Cl)cc1Cl` (stereo not drawn): the MIC in assay [5] fell in the range of 1.56 to 12.5 µg/mL (≈ 2.41 to 19.3 µM). Also, the IC50 in assay [6] is > 150 µg/mL.
